“Also recorded” adds a separate entry of the source. Residues, ends and D or L forms follow the SMILES beside them. {Stearyl} = n-C18 stearyl group added with a stearyl phosphoramidite

The nature of one data set: Gel mobility on standard agarose gel without vesicles. It is filed as physicochemical. Conditions: ligand attached to 5′ end of DNA; 1.5% agarose, no vesicles; FIG. 1. As for the experimental part:
Low melt agarose gels (standard 1× TBE, 1.5% agarose), without vesicles were prepared by conventional methods (Molecular Cloning: a Laboratory Manual, T. Maniatis, E. F. Fritsch & J. Sambrook (1982)).
After the gels have solidified, samples are loaded, run at 100 volts, stained with ethidium bromide and photographed by standard methods (Molecular Cloning; Maniatis et al.; Cold Spring Harbor press, 1982).
On to “Compound 1: stearyl (n-C18H37) group attached to 5′ end of DNA oligonucleotide X (SEQ. ID. No. 1) (DNA GCTCGTCGCATTCGGCACGC; DNA, 5' {Stearyl}, backbone and methylation of C not given here; further chemistry not fully specified)”, for which the “mobility on standard agarose gel” value is listed as “modestly retarded”.

A further data set in a line: eLogD by shake flask method in aqueous buffer/octanol mixture. Conditions: linear peptides, N terminal acetylated and C terminal amide; pH 7.4, octanol-water.
Description: “eLogD,” as used herein, refers to a determination of LogD by shake flask method in aqueous buffer/octanol mixture.
“LogD(pH),” as used herein, refers to a distribution of a compound between aqueous buffer and octanol at a given pH. Unless otherwise stated, the pH is assumed to be 7.4 and be written as LogD.
Take Ac-ALLGF-NH2 [ALLGF]: the “eLogD (7.4)” value is listed as 1.05.
Still for that read-out and setting: then `CC(=O)N[C@@H](C)C(=O)N[C@@H](Cc1ccc(O)cc1)C(=O)N[C@@H](CC(C)C)C(N)=O` [AYL] (Ac-Ala-Tyr-Leu-NH2), with −0.06.
On the same count and under the same terms, to `CC[C@H](C)[C@H](NC(=O)[C@H](CCC(=O)O)NC(C)=O)C(=O)N[C@@H](Cc1ccccc1)C(N)=O` [EIF (D718)] (Ac-Glu-Ile-Phe-NH2) belongs −2.30.
On the same count and under the same terms, to `CC[C@H](C)[C@H](NC(C)=O)C(=O)N[C@@H](CCSC)C(=O)N[C@@H](Cc1ccccc1)C(N)=O` [IMF] (Ac-Ile-Met-Phe-NH2) belongs 1.25; to `CC[C@H](C)[C@H](NC(C)=O)C(=O)N[C@@H](Cc1ccccc1)C(=O)N[C@@H](C)C(N)=O` [IFA] (Ac-Ile-Phe-Ala-NH2), 0.46.
For the molecule `CC(=O)N[C@@H](Cc1c[nH]c2ccccc12)C(=O)NCC(=O)NCC(N)=O` [WGG] (Ac-Trp-Gly-Gly-NH2), the “eLogD (7.4)” value is −0.80.
Turning to `CC[C@H](C)[C@H](NC(=O)[C@H](CC(C)C)NC(=O)[C@H](CO)NC(C)=O)C(N)=O` [SLI] (Ac-Ser-Leu-Ile-NH2), the “eLogD (7.4)” value is on record as −0.06.
Same read-out and setting: then `CC(=O)N[C@@H](CCCNC(=N)N)C(=O)N[C@@H](Cc1ccccc1)C(=O)N[C@@H](CC(C)C)C(N)=O` [RFL] (Ac-Arg-Phe-Leu-NH2), with −1.12; and Ac-YTGFL-NH2 [YTGFL], with 0.57.

The next data set is described as follows: Reverse phase HPLC of steroids linked to a 220 base pair oligonucleotide (Agilent AdvanceBio Oligonucleotide column). It is filed as physicochemical. Conditions: 220 base pair conjugates, acetonitrile/10 mM ammonium acetate gradient. As to the method: HPLC purified 20 base pair single stranded oligomers operatively linked to alkyl or steroid ligands were transformed into a double stranded 220 base pair gene via polymerase chain reaction (PCR). The oligomers operatively linked to alkyl or steroid ligands and a 20 base pair reverse oligomer (1 uM) were used as PCR primers in a 100 uL reaction with 10 ng of double stranded 220 base pair gene template with 2× Fusion Flash High-Fidelity PCR Master Mix (ThermoFisher F548S). Thermocycling was performed at 98 C.° for 10 s, followed by 10 cycles of 98 C°, 1 s, 55 C°, 5 s, 72 C°, 10 s then followed by an additional protocol of 98 C.° for 10 s followed by 15 cycles of 98 C°, 1 s, 50 C°, 5 s, 72 C°, 10 s. PCR products of 220 base pair were confirmed via gel electrophoresis, purified with the QIAquick PCR Purification Kit (Qiagen) and DNA concentration was quantified via nanodrop A260 measurements.
Compounds 18-24, prepared as described in Example 10 from the analogous 20 base pair oligomers were run on a reverse phase HPLC column, using an Agilent AdvanceBio Oligonucleotide column and acetonitrile/ammonium acetate gradient. […] Without wishing to be bound by theory, inclusion of appropriate standard compounds may provide useful surrogates of absolute values of log D. It should be also noted that chromLogD and Chrom20LogD may be determined by extensions of the above experiment.
On to acetate, for which the “resolution / elution by reversed phase HPLC” value is listed as “eluting in the void volume”.

The next data set can be described thus: Gel mobility on agarose gel containing 0.9% CTAB/SOS vesicles. It is filed as physicochemical. Conditions: ligand attached to 5′ end of DNA; 1.5% agarose, 0.9% (w/v) CTAB/SOS vesicles; relative to reference gels lacking vesicles; FIG. 2. As for the experimental part:
Vesicles are prepared essentially as described by Pascoe et al., Electrophoresis 2003, 24: 4227-4240. Briefly, 0.45 gm of CTAB/SOS (CTAB=hexadecyltrimethylammonium bromide, Sigma catalogue #H9151; SOS=sodium octyl sulfate. Sigma catalogue #O4003)) at a ratio of 3:7 is dissolved in 1× TBE [Trisma-borate-EDTA electrophoresis buffer, Maniatis et al., p. 454] and heated to 50° C. in a water bath to assure dissolution. The solution is cooled overnight to room temperature and then filtered through a 0.2 micron filter. Vesicles prepared in this manner are reported to be stable for multiple days at room temperature.
Low melting agarose (0.75 gm) is dissolved in 25 mL 1× TBE and placed in a water bath at 50° C. along with a separate tube of vesicles. After equilibrium is reached, the tubes are mixed in a preheated flask, gently swirled and poured into a standard horizontal mini-gel apparatus to provide a vesicle agarose gel ((standard 1× TBE, 1.5% agarose, 0.9%). […]
FAM is 5′-6-FAM (Fluorescein). The 6-FAM moiety is comprised of a single isomer derivative of fluorescein and is the most commonly used fluorescent dye attachment for oligonucleotides and is compatible with most fluorescence detection equipment. It becomes protonated and has decreased fluorescence below pH 7; it is typically used in the pH range 7.5-8.5. […]
For the molecule “Compound 1: stearyl (n-C18H37) group attached to 5′ end of DNA oligonucleotide X (SEQ. ID. No. 1) (DNA GCTCGTCGCATTCGGCACGC; DNA, 5' {Stearyl}, backbone and methylation of C not given here; further chemistry not fully specified)”, the “mobility on agarose gel with vesicles” value is given as “greatly retard the mobility; also recorded: retarded”.

Source of the values: patent US20170153257A1, “METHODS OF ESTIMATING LOGD OF TAGGED COMBINATORIAL LIBRARY COMPOUNDS” (DiCE Molecules SV, LLC, priority 2015, published 2017).
